Each structure is given as a SMILES string.

Experiment [1] deals with T1, Leukotriene B4 receptor 1 (Homo sapiens, UniProt Q15722). Put plainly: Compound was evaluated for inhibitory activity against LTB4 receptor in human neutrophil membranes using [3H]- LTB4 as radioligand. Format: cell membranes.
The target in experiment [2] is T1, Leukotriene B4 receptor 1. Put plainly: Compound was evaluated for relative binding affinity against LTB4 receptor in human neutrophil membranes using [3H]- LTB4 as radioligand relative to leukotriene B4. Format: cell membranes.

T1 sequence (Q15722 whole entry): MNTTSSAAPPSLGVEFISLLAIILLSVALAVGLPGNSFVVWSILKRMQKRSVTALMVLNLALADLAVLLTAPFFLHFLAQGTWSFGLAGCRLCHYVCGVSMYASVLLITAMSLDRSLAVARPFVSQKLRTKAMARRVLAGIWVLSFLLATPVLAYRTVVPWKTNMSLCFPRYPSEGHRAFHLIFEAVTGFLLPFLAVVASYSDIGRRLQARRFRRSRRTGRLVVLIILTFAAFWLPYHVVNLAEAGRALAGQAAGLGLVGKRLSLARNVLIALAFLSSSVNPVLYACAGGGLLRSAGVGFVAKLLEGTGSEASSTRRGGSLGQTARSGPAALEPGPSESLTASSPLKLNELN

In general, IC50 refers to the concentration that gives 50% inhibition. Low readings indicate greater potency, high ones weaker potency. Compound `CCCCCC(O)/C=C/[C@H]1CCC[C@@](O)(CCCC(=O)O)C1` (stereo not given in full) registered a 50% inhibitory concentration (IC50) in experiment [1] of 70 µM.

`CCCCCC(O)/C=C/[C@H]1CCC[C@@](O)(CC(=O)O)C1` (stereo not given in full): the IC50 in experiment [1] was determined as 8 µM. For the same compound, in experiment [2], the relative binding affinity (RBA) worked out at 0.001.

In experiment [1], `CCCCCCCCC(O)/C=C/[C@H]1CCC[C@@](O)(CC(=O)O)C1` (stereo not given in full) displayed an IC50 of 1 µM. The compound further showed a relative binding affinity (RBA) in experiment [2] of 0.008.

With `O=C(O)C[C@]1(O)CCC[C@H](/C=C/C(O)CCCCc2ccccc2)C1` (stereo in doubt; 1d1) [listing 1 of 2 here], in experiment [1], the IC50 was found to be 0.3 µM.

Compound `O=C(O)C[C@]1(O)CCC[C@H](/C=C/C(O)CCCCc2ccccc2)C1` (stereo in doubt; 1d1) [listing 2 of 2 here] returned a relative binding affinity (RBA) in experiment [2] of 0.025.

The compound `O=C(O)C[C@]1(O)CCC[C@H](/C=C/C(O)CCCCc2ccccc2)C1` (stereo in doubt; 1d2) returned an IC50 in experiment [1] of 70 µM.

With `O=C(O)C[C@]1(O)CCC[C@H](/C=C/C(O)CCCCc2ccccc2)C1` (stereo in doubt; 1d) [listing 1 of 2 here], the IC50 in experiment [1] came out at 0.8 µM.

As for `O=C(O)C[C@]1(O)CCC[C@H](/C=C/C(O)CCCCc2ccccc2)C1` (stereo in doubt; 1d) [listing 2 of 2 here], the relative binding affinity (RBA) in experiment [2] stood at 0.01.
